pIC50: −log10 of the molar value. Values joined by “and” are separate entries in the source; they are usually repeats but may differ in a detail not shown here. Identical values can stand only once.
Key:
[1] = S9 liver microsome stability assay (Cyprotex); type: in vitro ADME; conditions: for microsomal CLint: S9 liver microsome assay, read-out: predicted intrinsic clearance; for clearance classification: low clearance: < 8.6 µL/min/mg protein
Procedure: supplemented with 80 µM Zn(II), 70 µM of inhibitor, all in 50 mM Tris-d11, pH 7.5, 10 % D2O, […]
Cell Culture and Immunoblotting
HeLa cells were cultured in DMEM media supplemented with 10 % fetal bovine serum, 4 mM L-glutamine, 100 U/mL penicillin, and 100 µg/mL streptomycin. Cells were treated with the indicated compounds, prepared in 1% DMSO, for 5 h. Following a PBS buffer rinse, cells were lysed in urea/SDS buffer supplemented with 1 mM dithiothreitol. Cell extracts were analyzed by SDS-PAGE, electroblotted onto PVDF membranes (Millipore) and probed with anti-HIF-1α antibody (clone 54, BD Transduction Laboratories) at 1:1000 dilution for 1 h at room temperature. The HRP-conjugated secondary antibody was then applied at room temperature for 1 h. Target proteins were detected with SuperSignal Chemiluminescent […]
ADMET in vitro Predictors
S9 liver microsome stability assays and MDCK-MDR1 efflux assays were carried out for CCT3 and CCT4 by Cyprotex (UK). Additional details are provided later in the Supporting […]
The solubility and metabolic stability of CCT3 and CCT4 was preliminarily evaluated using a S9 liver microsome assay (Cyprotex, UK). According to the assay, CCT3 and CCT4 had […]
respectively, and are thus classified as having low clearance (< 8.6 µL/min/mg protein).
The cell permeability of CCT3 and CCT4 were evaluated using an MDR1-MDCK in vitro […]
able to penetrate the blood-brain barrier. The permeability coefficients were determined to be

[2] = target: JARID1C (Homo sapiens, UniProt P41229); experiment: JARID1C AlphaScreen-based assay; type: biochemical
Chain of JARID1C (P41229 whole entry): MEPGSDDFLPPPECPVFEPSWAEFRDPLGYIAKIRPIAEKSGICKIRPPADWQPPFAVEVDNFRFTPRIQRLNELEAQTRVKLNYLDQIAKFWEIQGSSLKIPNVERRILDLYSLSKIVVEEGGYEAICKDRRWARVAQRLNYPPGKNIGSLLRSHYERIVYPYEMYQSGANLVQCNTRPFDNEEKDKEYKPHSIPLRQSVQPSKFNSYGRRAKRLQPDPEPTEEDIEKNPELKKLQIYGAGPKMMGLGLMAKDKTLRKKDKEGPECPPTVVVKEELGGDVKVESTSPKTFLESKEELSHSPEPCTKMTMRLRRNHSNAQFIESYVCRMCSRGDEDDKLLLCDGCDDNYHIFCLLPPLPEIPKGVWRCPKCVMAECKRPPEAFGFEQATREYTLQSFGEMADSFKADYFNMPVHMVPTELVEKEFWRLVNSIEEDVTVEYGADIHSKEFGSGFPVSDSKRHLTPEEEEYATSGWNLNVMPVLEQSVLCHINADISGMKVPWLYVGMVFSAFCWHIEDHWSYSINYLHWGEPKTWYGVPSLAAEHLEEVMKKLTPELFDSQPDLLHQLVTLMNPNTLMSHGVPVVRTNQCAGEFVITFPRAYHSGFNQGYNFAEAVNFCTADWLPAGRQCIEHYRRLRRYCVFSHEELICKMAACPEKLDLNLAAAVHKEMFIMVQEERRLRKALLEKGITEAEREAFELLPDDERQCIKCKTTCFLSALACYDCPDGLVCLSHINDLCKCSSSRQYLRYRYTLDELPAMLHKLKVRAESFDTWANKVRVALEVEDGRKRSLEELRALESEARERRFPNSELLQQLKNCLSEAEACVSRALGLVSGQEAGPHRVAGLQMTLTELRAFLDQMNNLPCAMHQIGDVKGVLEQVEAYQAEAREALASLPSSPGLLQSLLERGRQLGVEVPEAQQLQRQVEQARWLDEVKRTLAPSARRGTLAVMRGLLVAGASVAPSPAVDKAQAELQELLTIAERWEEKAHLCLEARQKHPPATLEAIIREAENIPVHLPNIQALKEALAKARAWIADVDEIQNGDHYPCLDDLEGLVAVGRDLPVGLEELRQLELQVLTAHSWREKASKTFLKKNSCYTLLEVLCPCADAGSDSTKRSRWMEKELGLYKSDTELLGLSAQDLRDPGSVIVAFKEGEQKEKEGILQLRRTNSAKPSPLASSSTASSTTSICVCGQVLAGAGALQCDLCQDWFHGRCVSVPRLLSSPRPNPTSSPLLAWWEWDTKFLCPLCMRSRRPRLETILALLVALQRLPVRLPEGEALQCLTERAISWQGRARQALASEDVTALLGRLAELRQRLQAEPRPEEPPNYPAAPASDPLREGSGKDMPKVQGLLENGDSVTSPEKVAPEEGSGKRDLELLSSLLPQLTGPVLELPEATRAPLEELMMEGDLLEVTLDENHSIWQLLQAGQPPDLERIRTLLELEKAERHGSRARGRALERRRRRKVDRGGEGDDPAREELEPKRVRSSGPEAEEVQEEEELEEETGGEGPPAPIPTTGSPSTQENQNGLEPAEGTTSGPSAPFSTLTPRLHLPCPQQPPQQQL
Procedure: reactions were quenched after 4 min. KDM4A inhibition was tested as described previously using a formaldehyde dehydrogenase (FDH) assay.[9] JARID1B and JARID1C inhibition was tested as described previously using reported AlphaScreen-based assays.[10] MINA531-464 and NO66116-641 were cloned into pFB-LIC-Bse, and the N-terminal His-tagged proteins were produced in Sf9 insect cells. The MINA53 peptide substrate Rpl27a […]
(Gly31 – Pro49 […]) and the NO66 peptide substrate Rpl8
(Asn205 – Thr224 […]) were synthesized by Peptide Protein
Research Ltd (Fareham, Hampshire, UK) to >95% purity. IC50 determinations were performed in 384-well polypropylene plates (Greiner Bio One, Cat Number 781096), and compound dispenses were performed using an ECHO 550 acoustic dispenser (Labcyte, Sunnyvale, CA).
NO66 (diluted to 375 nM in 50 mM MES pH 7.0, 150 mM NaCl) and MINA53 (diluted to 187.5 nM in 50 mM HEPES pH 7.5, 50 mM NaCl) were dispensed (40 µL) into 384-well compound plates using a multidrop combi reagent dispenser (Thermo Scientific, Code 5840300) with a small tube plastic tip dispensing cassette (Thermo Scientific, Code 24073290).
NO66 and MINA53 were pre-incubated with compound for 15 minutes, and the enzyme reaction initiated by dispensing 10 µL of substrate solution [250 µM (NH4)2Fe(SO4)2, 500 µM sodium ascorbate, 25 µM 2OG, 25 µM peptide] in optimized enzyme buffer. […]

[3] = target: T1, OGFOD1 (Homo sapiens, UniProt Q8N543); experiment: OGFOD1 inhibition assay: hydroxylation of RPS23 51-70 peptide by MALDI-TOF MS; type: biochemical; conditions: IC50 against OGFOD1, 1 μM OGFOD1; minimum measurable IC50 0.5 μM; values for 24 and 25 regarded as preliminary
T1 sequence (Q8N543 1-542): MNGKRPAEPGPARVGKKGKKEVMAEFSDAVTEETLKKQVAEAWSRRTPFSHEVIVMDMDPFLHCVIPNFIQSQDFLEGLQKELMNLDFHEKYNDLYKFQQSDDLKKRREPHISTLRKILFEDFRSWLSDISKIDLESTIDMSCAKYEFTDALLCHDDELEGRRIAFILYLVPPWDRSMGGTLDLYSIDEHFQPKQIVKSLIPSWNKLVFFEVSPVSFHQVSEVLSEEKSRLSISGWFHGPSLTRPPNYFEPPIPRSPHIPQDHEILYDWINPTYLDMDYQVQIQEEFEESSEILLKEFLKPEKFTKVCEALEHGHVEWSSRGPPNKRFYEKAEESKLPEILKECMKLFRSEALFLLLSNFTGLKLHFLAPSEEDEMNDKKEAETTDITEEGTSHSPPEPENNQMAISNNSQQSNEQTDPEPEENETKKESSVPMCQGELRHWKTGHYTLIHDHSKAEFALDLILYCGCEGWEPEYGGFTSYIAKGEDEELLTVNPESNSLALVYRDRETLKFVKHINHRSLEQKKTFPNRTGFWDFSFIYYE
Procedure: OGFOD1 inhibition assays were performed by determining the extent of hydroxylation of a 20mer fragment of human ribosomal protein S23 (RPS23) containing residues 51-70 (H2N- […]
-CONH2) by matrix-assisted laser desorption/ionization time-of-flight mass spectrometry (MALDI-TOF MS) using a Waters Micromass MALDI micro MX mass spectrometer and MassLynx 4.1, as previously described.[7,8] The optimized hydroxylation assay involved incubation of OGFOD1 (1 µM) with inhibitor (1 % v/v in DMSO) in the presence of (NH4)2Fe(SO4)2 (50 µM), the disodium salt of 2-oxoglutarate (25 µM), […]
OGFOD1 was pre-incubated with inhibitor for 5 min before initiation of the reaction via the addition of the other reagents. Reactions were quenched with formic acid (1 % v/v) after 15 min. Samples were prepared for MALDI using α-cyano-4-hydrocinnamic acid (CHCA; prepared in 50 % acetonitrile) as a matrix. Dose-responses were assessed in 8-point triplicates, normalized to a no enzyme negative control and a no inhibitor positive control. Non-linear regression analysis was performed using Prism (GraphPad). […]

| Compound | microsomal CLint [1] | clearance classification ([1]; listed as CCT3) | pIC50 [2] | pIC50 [3] | clearance classification ([1]; listed as CCT4) |
| --- | --- | --- | --- | --- | --- |
| Cn1c(O)c(C(=O)CCc2ccccc2)c(=O)n(C)c1=O [compound 26] | 4.76 µL/min/mg | only low levels of clearance | < 4.00 | 6.15 and 6.14 and > 6.00 |  |
| Cn1c(O)c(C(=O)CCc2cccs2)c(=O)n(C)c1=O [compound 42] | 7.72 µL/min/mg |  | < 4.00 | 6.16 and > 6.00 | only low levels of clearance |

From PMC6471485, “Selective Inhibitors of a Human Prolyl Hydroxylase (OGFOD1) Involved in Ribosomal Decoding” (Chemistry (Weinheim an Der Bergstrasse, Germany), 2019)
